Key:
[1] = test system: SEC subunits AFF1, AFF4, ELL2, CCNT1 and CDK9 mRNA; assay: RNA-seq of SEC subunit mRNA expression in HEK293T cells; format: cell-based, human; details: 20 μM, 12 hr
Description: FIG. 8, related to FIG. 1. Peptidomimetic identification of disruptors of the AFF4-CCNT1 interaction within the Super Elongation Complex. (A) Schematic of AlphaLISA assay of the AFF4-CCNT1 interaction. Anti-GST AlphaLISA acceptor beads and AlphaScreen streptavidin donor beads (Perkin Elmer) were used to detect the interaction of GST-CCNT1 (AA1-300) and biotin-AFF4 (AA32-67). (B-C) Optimization of the AlphaLISA assay with various biotin-AFF4 peptide and GST-CCNT1 concentrations. No CCNT1 (B) and mutant AFF4 (C) were used as negative controls. Data are represented as Mean+/−SD. (D) Scheme for chemical synthesis of SEC inhibitors KL-1 and KL-2. Reagents and conditions: a. LDA, THF, −78° C., 15 min., then diethyl oxalate, −78° C. to room temperature. b. […] 293T cells were treated with 20 μM of KL-1 or KL-2 for 6 hr, and the protein levels of BRD2, BRD4, Pol II (RPB1), SPT5, MED26, MYC, HSP90 (load control) and Tubulin (load control) were measured by western blotting. […] HCT-116 cells were treated with 20 μM of KL-1 or KL-2 for 6 hr, and the protein levels of AFF1, AFF4, CCNT1, CDK9 and Tubulin (load control) were determined by western blotting. […] The log2CPM (counts per million) of the SEC subunits were calculated with HTseq. […]
RNA-seq Analysis. […] Exonic reads were assigned to specific genes from Ensembl release 75 using Bioconductor package GenomicRanges countOverlaps. […]

[2] = test system: Tat-induced HIV genome activation in J-Lat 6.3 cells; assay: Tat-induced HIV genome activation in J-Lat 6.3 cells (GFP, FACS); format: cell-based, human; details: 20 μM, 10 nM PMA, 17 hr
Description: FIG. 12, related to FIG. 5. SEC inhibitors block transcription elongation in SEC-dependent rapid response models. […] (B) Gene Ontology analysis of the 136 identified heat shock-induced genes in HCT-116 cells. (C) Workflow of Tat-induced HIV genome activation in J-Lat 6.3 cells. J-Lat 6.3 cells contain an integrated copy of the HIV genome that has GFP replacing HIV nef and could be activated by Phorbol-12-Myristate-13-Acetate (PMA). J-Lat 6.3 cells were treated with vehicle or 20 μM SEC inhibitor along with PMA to activate the HIV genome transcription, which could be monitored by flow cytometry analysis. (D-E) SEC inhibitors block Tat-induced HIV genome activation in J-Lat 6.3 cells. (D) FACS analysis of J-Lat 6.3 cells treated with 10 nM PMA and SEC inhibitors for 17 hr. […] Unpaired two-way ANOVA was used to compare the groups between DMSO and SEC inhibitors. ***, p<0.001. Data are represented as Mean+/−SD. […]
Induction of J-Lat 6.3 Cells. […] Cells were washed in PBS and GFP fluorescence was measured with a FACSVantage instrument (Becton Dickinson, San Jose, Calif.). […] A two-parameter analysis to distinguish GFP-derived fluorescence from background fluorescence was used: GFP was measured in FL1 and cellular autofluorescence was monitored in FL2. The percentage of GFP-positive cells was calculated based on live cells (Jordan et al., 2003).

MDA231-LM2 cells = assay: Annexin V apoptosis in MDA231-LM2 cells; format: cell-based; details: 24 hr
Description: (§1) FIG. 14, related to FIG. 7. SEC disruptors delay tumor progression and improve survival of MDA231-LM2 tumor mice. (A) KL-1 and KL-2 inhibit the colony formation of MDA231-LM2 cells in vitro. 5×10^3 MDA231-LM2 cells were seeded in 6-well plates and treated with KL-1 or KL-2 at the indicated doses for 5 days. Crystal violet staining was performed to stain the colonies. (B) KL-1 and KL-2 induce apoptosis in MDA231-LM2 cells. Bar graph depiction of Annexin V positive MDA231-LM2 cells after 24 hr of KL-1 and KL-2 treatments at the indicated concentrations. Data are represented as Mean+/−SD. […] Each individual line indicates the weights of each mouse during toxicity test.

[3] = Toxicity test in mice (body weight, sickness); format: in vivo; details: 5 doses of 50 mg/kg, monitored 35 days
Description: as §1

## COc1cccc(C(=O)CC(=O)C(=O)Nc2cc(Cl)ccc2C)c1 [KL-1, N-(5-chloro-2-methylphenyl)-4-oxo-4-(3-methoxyphenyl)-2-oxobutanamide]
[1]
  mRNA levels of SEC components: do not result in decreased mRNA levels of SEC components
[2]
  GFP expression after PMA induction: strong inhibition of GFP expression
MDA231-LM2 cells
  apoptosis (Annexin V staining): increase apoptosis
[3]; intraperitoneal
  weight loss in mice: does not result in significant weight loss
[3]
  sign of sickness in mice: no obvious sign of sickness was observed
